# pEC50: −log10 of the molar value. Where two headings read alike, the source gives them in different places.
# Assays:
# plasma kallikrein = target: T1, plasma kallikrein (Homo sapiens, UniProt P03952); test: Neat human plasma assay, FXIIa contact pathway-activated, PFR-AMC substrate; type: biochemical; details: read-out: Human Plasma Assay: IC90
# T1 construct: from tissue
# Description: To analyze inhibition of plasma kallikrein in an ex vivo setting, the potency of compounds was measure in contact pathway-activated plasma assays. In a fluorogenic peptide substrate assay, test compounds dissolved in DMSO were added to sodium citrate collected human or rat plasma in a 96-well microplate. Alternatively, citrated plasma was collected from rats administered the compounds orally or by IV. 10 nM of human FXIIa (Enzyme Research Laboratories) diluted in pKal buffer (20 mM Tris-HCl, pH 7.5, 150 mM NaCl, 1 mM EDTA, 0.1% PEG-8000, and 0.1% Triton X-100) was added to the plasma, followed by the 100 μM of the profluorescent, synthetic plasma kallikrein substrate PFR-AMC (also diluted in pKal buffer). Final plasma concentration in the reaction was 78%. Fluorescence was immediately monitored by excitation/emission wavelengths of 360 nm/480 nm respectively over a period of 5 minutes in a microplate reader. The resulting linear increase in fluorescence emission (reflecting pKal proteolysis of PFR-AMC substrate) was fit to extract a proteolytic rate (fluorescent units over time), and this rate was subsequently plotted against compound inhibitor concentration. Resulting plots were fit to a standard 4-parameter IC50/IC90 equation to determine min/max values, IC50/90, and slope. All experimental steps were performed at room temperature. Table 50 provides results of the assay.
# [1] = target: human activated kallikrein enzyme (Homo sapiens, UniProt P03952); test: Plasma kallikrein inhibition, fluorogenic PFR-AMC substrate, 500 pM activated kallikrein format; type: biochemical; details: 300 uM PFR-AMC, 30 min preincubation, 10 min reaction
# Outline: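 Fluorogenic readout (ex 380 / em 460 nm) after 10 min room-temperature reaction with 300 uM Pro-Phe-Arg-AMC substrate, following 30 min preincubation of inhibitors with 500 pM enzyme. Buffer: Tris pH 7.5, EDTA, NaCl, PEG-400, Triton X-100. Values given as EC50 ranges.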
# [2] = citrated human plasma 78% final, 10 nM human FXIIa, 100 μM PFR-AMC
# [3] = 500 pM activated kallikrein, read-out: Primary Dose Response Assay: Average EC50
# T1 sequence (P03952 391-638 limits assumed): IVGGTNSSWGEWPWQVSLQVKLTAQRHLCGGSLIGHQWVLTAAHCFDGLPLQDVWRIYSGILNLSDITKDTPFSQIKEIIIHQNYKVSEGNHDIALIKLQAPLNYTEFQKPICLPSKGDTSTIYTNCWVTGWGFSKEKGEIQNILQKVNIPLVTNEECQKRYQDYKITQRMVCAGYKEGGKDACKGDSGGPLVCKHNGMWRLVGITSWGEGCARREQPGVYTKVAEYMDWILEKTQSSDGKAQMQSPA
# T1 sequence (P03952 20-390 partner limits assumed): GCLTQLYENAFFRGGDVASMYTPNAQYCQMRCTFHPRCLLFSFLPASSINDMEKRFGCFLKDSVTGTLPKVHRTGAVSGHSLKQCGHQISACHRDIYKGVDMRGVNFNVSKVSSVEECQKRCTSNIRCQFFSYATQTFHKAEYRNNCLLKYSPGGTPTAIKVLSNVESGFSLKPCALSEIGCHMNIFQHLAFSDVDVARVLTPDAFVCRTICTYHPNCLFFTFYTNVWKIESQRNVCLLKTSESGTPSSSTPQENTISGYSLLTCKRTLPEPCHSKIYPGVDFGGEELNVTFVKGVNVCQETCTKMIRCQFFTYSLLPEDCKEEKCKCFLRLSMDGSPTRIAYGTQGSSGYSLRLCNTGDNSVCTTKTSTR
# Sequence of human activated kallikrein enzyme (P03952 391-638 limits assumed): as the sequence (P03952 391-638 limits assumed) above
# Sequence of human activated kallikrein enzyme (P03952 20-390 partner limits assumed): as the sequence (P03952 20-390 partner limits assumed) above
IC90 (plasma kallikrein; [2]),"pEC50 [1, 3]",SMILES,IC90 (plasma kallikrein),"pEC50 ([1]; Primary Dose Response Assay: Average EC50, 500 pM activated kallikrein)"
,,"Cc1ccnc([C@H]2C[C@@H]2C(=O)Nc2cc(N[C@H](C)c3cn4cc(CF)cc(N5CC(=O)N(C)C5=O)c4n3)ncn2)n1 [Example 678, (1S,2S)—N-(6-(((R)-1-(6-(fluoromethyl)-8-(3-methyl-2,4-dioxoimidazolidin-1-yl)imidazo[1,2-a]pyridin-2-yl)ethyl)amino)pyrimidin-4-yl)-2-(4-methylpyrimidin-2-yl)cyclopropane-1-carboxamide]",< 400 nM,> 9.00
< 400 nM,> 9.00,"O=C(Nc1cc(NCc2cn3cc(C4CC4)cc(C4(O)CNC4)c3n2)ccn1)[C@H]1C[C@@H]1c1cccc(Cl)c1 [Example 134, (1S,2S)-2-(3-chlorophenyl)-N-(4-(((6-cyclopropyl-8-(3-hydroxyazetidin-3-yl)imidazo[1,2-a]pyridin-2-yl)methyl)amino)pyridin-2-yl)cyclopropane-1-carboxamide]",,
10000 to 48000 nM,8.00 to 9.00,"COCc1nc(NCc2cn3cc(C4CC4)ccc3n2)cc(NC(=O)[C@@H]2C[C@H]2c2cccc(Cl)c2)n1 (racemic) [Example 108, rac-(1S*,2S*)-2-(3-chlorophenyl)-N-(6-(((6-cyclopropylimidazo[1,2-a]pyridin-2-yl)methyl)amino)-2-(methoxymethyl)pyrimidin-4-yl)cyclopropane-1-carboxamide]",,
< 400 nM,> 9.00,"Cc1cc(NC(=O)[C@H]2C[C@@H]2c2nccc(C)n2)cc(NCc2cn3cc(C4CC4)cc(N4CC(=O)N(C)C4=O)c3n2)n1 [Example I-639, (1S,2S)—N-(2-(((6-cyclopropyl-8-(3-methyl-2,4-dioxoimidazolidin-1-yl)imidazo[1,2-a]pyridin-2-yl)methyl)amino)-6-methylpyridin-4-yl)-2-(4-methylpyrimidin-2-yl)cyclopropane-1-carboxamide]",,
10000 to 48000 nM,8.00 to 9.00,"N#CCCc1cc(C2CC2)cn2cc(COc3ccnc(NC(=O)[C@H]4C[C@@H]4c4cccc(Cl)c4)c3)nc12 (racemic) [Example 566, rac-(1S*,2S*)-2-(3-chlorophenyl)-N-(4-((8-(2-cyanoethyl)-6-cyclopropylimidazo[1,2-a]pyridin-2-yl)methoxy)pyridin-2-yl)cyclopropane-1-carboxamide]",,
< 400 nM,> 9.00,"Cc1ccnc([C@H]2C[C@@H]2C(=O)Nc2cc(NCc3cn4cc(C5CC5)cc(N5CC(=O)N(C)C5=O)c4n3)nc(C(F)F)n2)n1 (racemic) [Example 411, rac-(1S*,2S*)-N-(6-(((6-cyclopropyl-8-(3-methyl-2,4-dioxoimidazolidin-1-yl)imidazo[1,2-a]pyridin-2-yl)methyl)amino)-2-(difluoromethyl)pyrimidin-4-yl)-2-(4-methylpyrimidin-2-yl)cyclopropane-1-carboxamide]",,
< 400 nM,> 9.00,"Cc1cc(N2CC(=O)N(C)C2=O)c2nc([C@@H](C)Nc3cc(NC(=O)[C@H]4C[C@@H]4c4nccc(C)n4)ncn3)cn2c1 [Example 423, (1S,2S)-N-(6-(((R)-1-(6-methyl-8-(3-methyl-2,4-dioxoimidazolidin-1-yl)imidazo[1,2-a]pyridin-2-yl)ethyl)amino)pyrimidin-4-yl)-2-(4-methylpyrimidin-2-yl)cyclopropane-1-carboxamide]",,
1500 to 10000 nM,8.00 to 9.00,"O=C(Nc1cc(N2C[C@@H](O)C[C@@H]2c2cn3cc(C4CC4)ccc3n2)ccn1)[C@H]1C[C@@H]1c1cccc(Cl)c1 [Example 282, (1S,2S)-2-(3-chlorophenyl)-N-(4-((2R,4S)-2-(6-cyclopropylimidazo[1,2-a]pyridin-2-yl)-4-hydroxypyrrolidin-1-yl)pyridin-2-yl)cyclopropane-1-carboxamide]",,
400 to 1500 nM,> 9.00,"CN1CCN(c2cc(C3CC3)cn3cc(CNc4cc(NC(=O)[C@H]5C[C@@H]5c5cccc(Cl)c5)ccn4)nc23)CC1 [Example I-243, (1S,2S)-2-(3-chlorophenyl)-N-(2-(((6-cyclopropyl-8-(4-methylpiperazin-1-yl)imidazo[1,2-a]pyridin-2-yl)methyl)amino)pyridin-4-yl)cyclopropane-1-carboxamide]",,
400 to 1500 nM,8.00 to 9.00,"CN1C(=O)CN(c2cc(C3CC3)cn3cc(CNc4cc(NC(=O)[C@H]5C[C@@H]5c5nccc(C(F)F)n5)ncn4)nc23)C1=O (racemic) [Example I-164, rac-(1S*,2S*)-N-(6-(((6-cyclopropyl-8-(3-methyl-2,4-dioxoimidazolidin-1-yl)imidazo[1,2-a]pyridin-2-yl)methyl)amino)pyrimidin-4-yl)-2-(4-(difluoromethyl)pyrimidin-2-yl)cyclopropane-1-carboxamide]",,
400 to 1500 nM,> 9.00,"Cc1ccnc([C@H]2C[C@@H]2C(=O)Nc2nc(C)nc(N(C)Cc3cn4cc(C5CC5)cc(N5CC(=O)NC5=O)c4n3)n2)n1 (racemic) [Example 524, rac-(1S*,2S*)-N-(4-(((6-cyclopropyl-8-(2,4-dioxoimidazolidin-1-yl)imidazo[1,2-a]pyridin-2-yl)methyl)(methyl)amino)-6-methyl-1,3,5-triazin-2-yl)-2-(4-methylpyrimidin-2-yl)cyclopropane-1-carboxamide]",,
10000 to 48000 nM,> 9.00,"N#Cc1ccc(Cl)cc1[C@H]1C[C@@H]1C(=O)Nc1cc(NCc2cn3cc(C4CC4)ccc3n2)ccn1 (racemic) [Example 82, rac-(1S*,2S*)-2-(5-chloro-2-cyanophenyl)-N-(4-(((6-cyclopropylimidazo[1,2-a]pyridin-2-yl)methyl)amino)pyridin-2-yl)cyclopropane-1-carboxamide]",,
400 to 1500 nM,> 9.00,"Cc1ccnc([C@H]2C[C@@H]2C(=O)Nc2cc(N3C[C@@H](O)C[C@@H]3c3cn4cc(C5CC5)cc(N5CC(=O)N(C)C5=O)c4n3)ncn2)n1 (relative stereo) [Example 473, rac-(1S*,2S*)-N-(6-((2R,4S)-2-(6-cyclopropyl-8-(3-methyl-2,4-dioxoimidazolidin-1-yl)imidazo[1,2-a]pyridin-2-yl)-4-hydroxypyrrolidin-1-yl)pyrimidin-4-yl)-2-(4-methylpyrimidin-2-yl)cyclopropane-1-carboxamide]",,
400 to 1500 nM,8.00 to 9.00,"Cc1nc([C@H]2C[C@@H]2C(=O)Nc2cc(NCc3cn4cc(C5CC5)cc(N5CC(=O)N(C)C5=O)c4n3)ncn2)cs1 (racemic) [Example 493, rac-(1S*,2S*)-N-(6-(((6-cyclopropyl-8-(3-methyl-2,4-dioxoimidazolidin-1-yl)imidazo[1,2-a]pyridin-2-yl)methyl)amino)pyrimidin-4-yl)-2-(2-methylthiazol-4-yl)cyclopropane-1-carboxamide]",,
< 400 nM,> 9.00,"Cc1ccnc([C@H]2C[C@@H]2C(=O)Nc2cc(N[C@H](C)c3cn4cc(C5CC5)cc(N5CC6(COC6)OC5=O)c4n3)nc(C)n2)n1 [Example 437, (1S,2S)-N-(6-(((R)-1-(6-cyclopropyl-8-(6-oxo-2,5-dioxa-7-azaspiro[3.4]octan-7-yl)imidazo[1,2-a]pyridin-2-yl)ethyl)amino)-2-methylpyrimidin-4-yl)-2-(4-methylpyrimidin-2-yl)cyclopropane-1-carboxamide]",,
< 400 nM,> 9.00,"Cc1ccnc([C@H]2C[C@@H]2C(=O)Nc2cc(OCc3cn4cc(C5CC5)cc(N5CC(=O)N(C)C5=O)c4n3)nc(OCCN(C)C)n2)n1 [Example 563, (1S,2S)—N-(6-((6-cyclopropyl-8-(3-methyl-2,4-dioxoimidazolidin-1-yl)imidazo[1,2-a]pyridin-2-yl)methoxy)-2-(2-(dimethylamino)ethoxy)pyrimidin-4-yl)-2-(4-methylpyrimidin-2-yl)cyclopropane-1-carboxamide]",,
1500 to 10000 nM,8.00 to 9.00,"O=C(Nc1cc(NCc2cn3cc(C4CC4)cc(C4(O)COC4)c3n2)ncn1)[C@H]1C[C@@H]1c1cccc(Cl)c1 (racemic) [Example 63, rac-(1S*,2S*)-2-(3-chlorophenyl)-N-(6-(((6-cyclopropyl-8-(3-hydroxyoxetan-3-yl)imidazo[1,2-α]pyridin-2-yl)methyl)amino)pyrimidin-4-yl)cyclopropane-1-carboxamide]",,

SMILES,IC90 (plasma kallikrein; [2]),"pEC50 [1, 3]",IC90 (plasma kallikrein),"pEC50 ([1]; Primary Dose Response Assay: Average EC50, 500 pM activated kallikrein)"
"CN1CCC(O)(c2cc(C3CC3)cn3cc(CNc4cc(NC(=O)[C@H]5C[C@@H]5c5cccc(Cl)c5)ncn4)nc23)CC1 [Example 401, (1S,2S)-2-(3-chlorophenyl)-N-(6-(((6-cyclopropyl-8-(4-hydroxy-1-methylpiperidin-4-yl)imidazo[1,2-a]pyridin-2-yl)methyl)amino)pyrimidin-4-yl)cyclopropane-1-carboxamide]",400 to 1500 nM,> 9.00,,

# Reference: patent publication US20240228488A1 (TAKEDA PHARMACEUTICAL COMPANY LIMITED, priority 2021, published 2024)
